In patent publication US9133207B2, “Tetrandrine derivatives with substituted 5-carbon, preparation method and use thereof” (Hangzhou Bensheng Pharmaceutical Co., Ltd., priority 2011, dated 2015):
≈ marks a conversion by molar mass, not a printed value.

Key:
[1] = tested on: Kasumi-1 (acute myeloid leukemia M2 type, AML-M2); assay: Leukemia cell growth inhibition, MTT, 72 h (Example 5); format: cell-based, human; conditions: Homo sapiens, Kasumi 1
Excerpt: (§1) Leukemia cell lines: leukemia cell lines: K562/adr (drug-resistant, chronic myeloid leukemia, CML), NB4 (acute promyelocytic leukemia, AML), Kasumi-1 (acute myeloid leukemia M2 type, AML-M2), Jurkat (acute lymphoblastic leukemia, ALL), all of which are donated by Cancer Research Institute of Zhejiang University, China; and H9 (acute lymphoblastic leukemia, ALL), which is purchased from China Center for Type Culture Collection.
(§2) Reagents: The standard sample of tetrandrine (TTD) is purchased from Ci Yuan Biotechnology Co., Ltd., Shaanxi, China; and the 5-substituted tetrandrine derivatives of the present invention.
(§3) Obtaining 6000 well-growing leukemia cells and inoculating them into wells of a 96-well cell culture plate. The culture medium is a 1640 cell culture medium containing 10% fetal bovine serum. After adding the tetrandrine derivatives of different concentrations and mixing uniformly, placing the plate in a carbon dioxide cell incubator (5% CO2) at 37° C. and incubating for 72 hours. Then the viable cell concentration is determined by the MTT method.

[2] = tested on: K562/adr (drug-resistant, chronic myeloid leukemia, CML); assay: as above; format: cell-based, human; conditions: Homo sapiens, K562/Adr; 72 h, MTT
Excerpt: as §1, §2, §3

[3] = tested on: A549 (human lung cancer); assay: Solid tumor cell growth inhibition, MTT, 72 h (Example 7); format: cell-based; conditions: Homo sapiens; 72 h, MTT, A549
Procedure: (§4) Human solid tumor cell lines: Hep-2 (laryngeal carcinoma), A549 (human lung cancer), CaES-17 (esophageal cancer cell), PC-3 (prostate cancer), CNE (nasopharyngeal carcinoma cell) and SK-OV-3 (ovarian cancer cell), all of which are purchased from China Center For Type Culture Collection; RKO (human colon adenocarcinoma cell), MGC 803 (human gastric cancer cell), MG63 (osteosarcoma), and U87 MG (malignant glioma cell), all of which are purchased from Fuxiang Bio-tech Co. Ltd., Shanghai, China; PANC-1 (pancreatic cancer), Huh? (human liver cancer cell), Becap37 (human breast cancer cell), and Hela (human cervical cancer cell), all of which are donated by Cancer Research Institute of Zhejiang University, China.
(§5) Reagents: the same as in Example 5.
(§6) Obtaining 4000 well-growing human solid tumor cells and inoculating them into wells of a 96-well cell culture plate. The culture medium is DMEM High Glucose cell culture medium containing 10% fetal bovine serum. The plate is placed in a carbon dioxide cell incubator (5% CO2) at 37° C. and incubated for 24 hours. After been added with tetrandrine derivatives of different concentration and mixing uniformly, the plate is placed in a carbon dioxide cell incubator (5% CO2) at 37° C. and incubated for 72 hours. Then the viable cell concentration is determined by the MTT method and the cell viability (%) after drug treatment is calculated. In this experiment, the cell viability of control group (not treated with any compound) is set as 100%.

[4] = tested on: PANC-1 (pancreatic cancer); assay: as above; format: cell-based, human; conditions: Homo sapiens; 72 h, MTT, PANC-1
Procedure: as §4, §5, §6

[5] = tested on: Jurkat (acute lymphoblastic leukemia, ALL); assay: Leukemia cell growth inhibition, MTT, 72 h (Example 5); format: cell-based, human; conditions: Homo sapiens, Jurkat; 72 h, MTT
Excerpt: as §1, §2, §3

[6] = tested on: H9 (acute lymphoblastic leukemia, ALL); assay: as above; format: cell-based, human; conditions: Homo sapiens; 72 h, MTT
Excerpt: as §1, §2, §3

[7] = tested on: MGC 803 (human gastric cancer cell); assay: Solid tumor cell growth inhibition, MTT, 72 h (Example 7); format: cell-based; conditions: Homo sapiens
Procedure: as §4, §5, §6

[8] = tested on: Becap37 (human breast cancer cell); assay: as above; format: cell-based; conditions: Homo sapiens; 72 h, MTT, Becap-37
Procedure: as §4, §5, §6

[9] = tested on: Huh7 (human liver cancer cell); assay: as above; format: cell-based; conditions: Homo sapiens; 72 h, MTT, Huh-7
Procedure: as §4, §5, §6

[10] = tested on: PC-3 (prostate cancer); assay: as above; format: cell-based, human; conditions: Homo sapiens; 72 h, MTT, PC-3
Procedure: as §4, §5, §6

[11] = tested on: MG63 (osteosarcoma); assay: as above; format: cell-based, human; conditions: Homo sapiens; 72 h, MTT, MG-63
Procedure: as §4, §5, §6

[12] = tested on: CaES-17 (esophageal cancer cell); assay: as above; format: cell-based, human; conditions: Homo sapiens, CaEs17; 72 h, MTT, CAES-17
Procedure: as §4, §5, §6

[13] = tested on: RPMI8226 (multiple myeloma); assay: Multiple myeloma cell growth inhibition, MTT, 72 h (Example 6); format: cell-based, human; conditions: Homo sapiens, RPMI-8226; 72 h, MTT, RPMI8226
Procedure: Multiple myeloma and lymphoma cell lines: RPMI8226 (multiple myeloma), purchased from Fuxiang Bio-tech Co. Ltd., Shanghai, China.
as §5
as §3, with “incubated” for “incubating”

| Structure (SMILES) | IC50 [1] [µg/mL] | IC90 [1] [µg/mL] | IC50 [2] [µg/mL] | IC90 [2] [µg/mL] | IC50 [3] [µg/mL] | IC90 [3] [µg/mL] | IC50 [4] [µg/mL] | IC90 [4] [µg/mL] | IC50 [5] [µg/mL] | IC90 [5] [µg/mL] | IC50 [7] [µg/mL] | IC90 [7] [µg/mL] | IC50 [8] [µg/mL] | IC90 [8] [µg/mL] | IC50 [9] [µg/mL] | IC90 [9] [µg/mL] | IC50 [11] [µg/mL] | IC90 [11] [µg/mL] | IC50 [13] [µg/mL] | IC90 [13] [µg/mL] | further results |
| --- | --- | --- | --- | --- | --- | --- | --- | --- | --- | --- | --- | --- | --- | --- | --- | --- | --- | --- | --- | --- | --- |
| COc1ccc2cc1Oc1ccc(cc1)C[C@H]1c3cc(c(OC)cc3CCN1C)Oc1c(OC)c(OC)c(CN)c3c1[C@H](C2)N(C)CC3 [BS-TE-361] | 0.8 (≈ 1.23 µM) | 2.78 (≈ 4.27 µM) | 1.64 (≈ 2.52 µM) | 4 (≈ 6.14 µM) | 1.66 (≈ 2.55 µM) | 5.1 (≈ 7.82 µM) | 5.07 (≈ 7.78 µM) | 10.7 (≈ 16.4 µM) | – | – | – | – | – | – | – | – | – | – | – | – | – |
| COc1ccc2cc1Oc1ccc(cc1)C[C@H]1c3cc(c(OC)cc3CCN1C)Oc1c(OC)c(OC)c(COCc3ccc(F)cc3)c3c1[C@H](C2)N(C)CC3 [BS-TE-408] | 2.52 (≈ 3.31 µM) | 8 (≈ 10.5 µM) | 0.87 (≈ 1.14 µM) | 2.78 (≈ 3.65 µM) | 3.1 (≈ 4.07 µM) | 7.05 (≈ 9.27 µM) | 6 (≈ 7.89 µM) | 9.9 (≈ 13 µM) | 2.94 (≈ 3.86 µM) | 6.94 (≈ 9.12 µM) | 2.59 (≈ 3.4 µM) | 3.97 (≈ 5.22 µM) | 4.89 (≈ 6.43 µM) | 36.6 (≈ 48.1 µM) | 1.84 (≈ 2.42 µM) | 3.51 (≈ 4.61 µM) | 2.88 (≈ 3.78 µM) | 9.84 (≈ 12.9 µM) | 0.23 (≈ 0.302 µM) | 1.13 (≈ 1.49 µM) | IC50 [6]: 2.5 µg/mL (≈ 3.29 µM); IC90 [6]: 3.99 µg/mL (≈ 5.24 µM); IC50 [10]: 5.77 µg/mL (≈ 7.58 µM); IC90 [10]: 9.09 µg/mL (≈ 11.9 µM); IC50 [12]: 4.8 µg/mL (≈ 6.31 µM); IC90 [12]: 14.9 µg/mL (≈ 19.6 µM) |
| COc1ccc2cc1Oc1ccc(cc1)C[C@H]1c3cc(c(OC)cc3CCN1C)Oc1c(OC)c(OC)c(COCc3ccsc3)c3c1[C@H](C2)N(C)CC3 [BS-TE-415] | 1.95 (≈ 2.6 µM) | 6.41 (≈ 8.56 µM) | 0.57 (≈ 0.761 µM) | 2.06 (≈ 2.75 µM) | 2.44 (≈ 3.26 µM) | 5.61 (≈ 7.49 µM) | 2.76 (≈ 3.69 µM) | 4.9 (≈ 6.54 µM) | 2.22 (≈ 2.96 µM) | 5.71 (≈ 7.62 µM) | 1.06 (≈ 1.42 µM) | 1.9 (≈ 2.54 µM) | 1.9 (≈ 2.54 µM) | 3.31 (≈ 4.42 µM) | 1.09 (≈ 1.46 µM) | 1.91 (≈ 2.55 µM) | 1.31 (≈ 1.75 µM) | 4.75 (≈ 6.34 µM) | 0.14 (≈ 0.187 µM) | 0.89 (≈ 1.19 µM) | IC50 [6]: 1.71 µg/mL (≈ 2.28 µM); IC90 [6]: 2.5 µg/mL (≈ 3.34 µM); IC50 [10]: 3.5 µg/mL (≈ 4.67 µM); IC90 [10]: 5.76 µg/mL (≈ 7.69 µM); IC50 [12]: 1.74 µg/mL (≈ 2.32 µM); IC90 [12]: 5.98 µg/mL (≈ 7.98 µM) |
| COCCCOCc1c2c3c(c(OC)c1OC)Oc1cc4c(cc1OC)CCN(C)[C@H]4Cc1ccc(cc1)Oc1cc(ccc1OC)C[C@@H]3N(C)CC2 [BS-TE-416] | 2.11 (≈ 2.91 µM) | 8.17 (≈ 11.3 µM) | 0.98 (≈ 1.35 µM) | 5.59 (≈ 7.71 µM) | 4.05 (≈ 5.59 µM) | 11 (≈ 15.1 µM) | 4.63 (≈ 6.39 µM) | 10 (≈ 13.8 µM) | 3.45 (≈ 4.76 µM) | 11.7 (≈ 16.1 µM) | 5.17 (≈ 7.13 µM) | 8.33 (≈ 11.5 µM) | 1.8 (≈ 2.48 µM) | 4.31 (≈ 5.95 µM) | 2.93 (≈ 4.04 µM) | 5.07 (≈ 6.99 µM) | 1.08 (≈ 1.49 µM) | 2.49 (≈ 3.43 µM) | 0.29 (≈ 0.4 µM) | 2.76 (≈ 3.81 µM) | IC50 [6]: 2.31 µg/mL (≈ 3.19 µM); IC90 [6]: 4.4 µg/mL (≈ 6.07 µM); IC50 [10]: 4.19 µg/mL (≈ 5.78 µM); IC90 [10]: 9.49 µg/mL (≈ 13.1 µM); IC50 [12]: 2.3 µg/mL (≈ 3.17 µM); IC90 [12]: 16.6 µg/mL (≈ 22.9 µM) |
| COc1ccc2cc1Oc1ccc(cc1)C[C@H]1c3cc(c(OC)cc3CCN1C)Oc1c(OC)c(OC)c(CSc3ccccc3)c3c1[C@H](C2)N(C)CC3 [BS-TE-421] | 3.02 (≈ 4.05 µM) | 7.51 (≈ 10.1 µM) | 0.9 (≈ 1.21 µM) | 7.91 (≈ 10.6 µM) | 3.4 (≈ 4.56 µM) | 8 (≈ 10.7 µM) | 3.76 (≈ 5.05 µM) | 6.73 (≈ 9.03 µM) | – | – | 3.44 (≈ 4.62 µM) | 4.8 (≈ 6.44 µM) | 3.5 (≈ 4.7 µM) | 4.86 (≈ 6.52 µM) | 1.52 (≈ 2.04 µM) | 3.27 (≈ 4.39 µM) | 1.08 (≈ 1.45 µM) | 4.46 (≈ 5.99 µM) | 0.19 (≈ 0.255 µM) | 1.28 (≈ 1.72 µM) | – |
